Results on 2 compounds are retold here after US8852647B2, “Combinations of pyrimethanil and silver compounds” (Janssen Pharmaceutica, NV, priority 2007, dated 2014).

One test relates to Rhodoturula rubra. The experiment in a line: Poison Plate Assay (Experiment 1), Rhodoturula rubra. Particulars: for MIC-values (minimum inhibitory concentration): ppm total active ingredient, Glucose Agar, 22° C., evaluation after two weeks.
Test [1] relates to Streptomyces griseus (g+). Nature of the test: Poison Plate Assay (Experiment 2), Streptomyces griseus. It counts as cell-based. The settings on record: 120 h, Table 3, pyrimethanil with Microsil™, ppm total active ingredient, Tryptose Agar, 27° C., evaluation after 5 days, read-out: MIC-values (minimum inhibitory concentration). An excerpt: [formula] wherein: • QA is the concentration of compound A in ppm, acting alone, which produced an end point (e.g. MIC), • Qa is the concentration of compound A in ppm, in the mixture, which produced an end point (e.g. MIC), • QB is the concentration of compound B in ppm, acting alone, which produced an end point (e.g. MIC), • Qb is the concentration of compound B in ppm, in the mixture, which produced an end point (e.g. MIC). When the Synergy Index is greater than 1.0, antagonism is indicated. When the SI is equal to 1.0, additivity is indicated.
Experiment 2: Poison Plate Assay • Name of the primary compound: —pyrimethanil (I) • Name of the silver salt: —Microsil™ from Avecom (Bloemendalestraat 138, 8730 Beernem, Belgium) • Microsil™ is a suspension of colloidal silver metal particles, produced by and clustered on probiotic bacteria. The diameter of the silver particles varies between 3 to 20 nm. The oxidation state of the silver in Microsil™ is 0 (Ag^0). • Microsil™ is produced as a suspension of finely dispersed colloidal Ag^0 particles, stabilized on a biological carrier molecule, in water. The probiotic carrier exists only as a non-viable and stabilizing biocomponent. • Stock solution: 1000 ppm in DMSO • Test combinations: […]

For another test, the system named is Escherichia coli. The experiment in a line: Poison Plate Assay (Experiment 1), Escherichia coli. Particulars: for MIC-values (minimum inhibitory concentration): ppm total active ingredient, Tryptose Agar, 27° C., evaluation after one week.
Another test deals with Aspergillus versicolor. Nature of the test: Poison Plate Assay (Experiment 1), Aspergillus versicolor. Particulars: ppm total active ingredient, Glucose Agar, 22° C., evaluation after two weeks; for MIC: Aspergillus versicolor, 336 h.
[2] abbreviates: Table 2, pyrimethanil with silver perchlorate.
The mark [3] stands for this setting: Table 1, pyrimethanil with silver nitrate.

Converted amounts (≈) assume the structure as drawn. Where two headings read alike, the source gives them in different places.

For the compound `Cc1cc(C)nc(Nc2ccccc2)n1` [pyrimethanil, 4,6-dimethyl-N-phenyl-2-pyrimidinamine], the MIC with Rhodoturula rubra (336 h, read-out: MIC-values (minimum inhibitory concentration)) came out at 281 µg/mL (≈ 1410 µM); in test [1] it was 66.7 µg/mL; in the test on Escherichia coli (Escherichia coli, 168 h, read-out: MIC-values (minimum inhibitory concentration)), 667 µg/mL (≈ 3350 µM); with Aspergillus versicolor (read-out: MIC-values (minimum inhibitory concentration), Table 1, pyrimethanil with silver nitrate), 667 µg/mL (≈ 3350 µM); with Aspergillus versicolor (read-out: MIC-values (minimum inhibitory concentration), Table 2, pyrimethanil with silver perchlorate), 375 µg/mL (≈ 1880 µM). The “MIC-values (minimum inhibitory concentration)” value against Rhodoturula rubra (setting [2]) was 281.25 ppm; against Escherichia coli (setting [2]) it was 666.67 ppm.
As to `O=[N+]([O-])[O-].[Ag+]` [silver nitrate], the figures for the “MIC-values (minimum inhibitory concentration)” value in the test with Rhodoturula rubra (setting [3]), against Escherichia coli (setting [3]) and with Aspergillus versicolor (setting [3]) were 118.65 ppm, 66.67 ppm and 118.65 ppm, respectively.
